Source: US12552767B2, “3-heteroaryl pyrrolidine and piperidine orexin receptor agonists” (Merck Sharp & Dohme LLC, priority 2020, dated 2026)
pEC50: −log10 of the molar value.

Molecular target: T1, human OX2R (Homo sapiens, UniProt O43614)
T1 construct: expressed in transfected cells; host or cells: CHO (Chinese hamster ovary) cells, grown under G418 selection
T1 sequence (O43614 1-444): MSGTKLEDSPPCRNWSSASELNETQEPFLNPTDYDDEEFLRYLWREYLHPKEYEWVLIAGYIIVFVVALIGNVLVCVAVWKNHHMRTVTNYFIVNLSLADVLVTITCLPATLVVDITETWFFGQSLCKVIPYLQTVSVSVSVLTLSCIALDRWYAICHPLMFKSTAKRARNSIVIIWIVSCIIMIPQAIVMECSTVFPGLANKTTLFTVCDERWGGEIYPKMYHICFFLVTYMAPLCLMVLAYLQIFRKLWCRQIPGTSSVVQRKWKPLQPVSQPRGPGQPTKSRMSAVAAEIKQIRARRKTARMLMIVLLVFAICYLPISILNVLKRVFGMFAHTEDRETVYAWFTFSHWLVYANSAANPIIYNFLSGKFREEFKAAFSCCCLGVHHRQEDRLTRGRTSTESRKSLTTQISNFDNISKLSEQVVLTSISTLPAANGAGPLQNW
Experiment: IP-One (IPOne) orexin receptor agonist assay in CHO cells expressing human OX2R
Type: cell-based
Conditions: for pEC50: CHO cells expressing human OX2R, IP-One IP-1 detection, 2 hours incubation, four parameter logistic fit, read-out: OX2R Potency, EC50; for % of reference agonist maximal effect: human OX2R, percentage of sample raw value/mean max effect (reference compound at 1 uM with 100% activity)
Source text: The utility of the compounds in accordance with the present invention as orexin receptor OX1R and/or OX2R agonists may be readily determined without undue experimentation by methodology well known in the art. Both the OX1R and/or OX2R G-coupled protein receptors (GPCRs) couple through the Gαq signaling pathway, which ultimately promotes calcium mobilization via inositol triphosphate (IP3) production. The half-life of IP-3 is relatively short, being rapidly metabolized to inositol monophosphate (IP-1), which can be readily detected using a commercially available assay kit (IP-One; Cisbio; cat #621PAPEC) coupled with a cell line expressing the target receptor(s) of interest. The utility of the compounds in accordance with the present invention as orexin receptor OX1R and/or OX2R agonists may be determined utilizing this assay.
In a typical experiment, the OX1 and OX2 receptor agonist activity is determined in accordance with the following general experimental method. Chinese hamster ovary (CHO) cells expressing human OX1R and/or the human OX2R were grown in Iscove's modified DMEM containing glutaMAX™, 1% G418, 100 U/mL penicillin, 100 μg/mL streptomycin and 10% heat-inactivated qualified fetal bovine serum (FBS). The OX2R cells were seeded at 10,000 cells/well/50 μL and the OX1R cells were seeded at 20,000 cells/well/50 μL into 384-well white tissue culture plates (Greiner; cat #781080). All cell/media reagents were from GIBCO-Invitrogen Corp. The seeded cell plate(s) were incubated at 37° C. with 5% CO2 and 85% humidity for 20-24 hours. On the day of the assay, assay-ready compound plates were prepared using an acoustic liquid handler (ECHO; Labcyte), which dispensed sufficient volume of test compound stock (10 mM in DMSO) or 100% DMSO to prepare 10 point, ½-log dilutions in a final volume of 202.5 nL/well in all test wells of a 384-well diamond plate (Labcyte). Following completion of assay-ready plates, importantly, the next three steps were performed with minimal delay: 1) 20 μl of 1× stimulation buffer was added to the compound plate using a Multidrop Combi (small cassette, Thermo Fisher Scientific cat #24073290); 2) culture medium was removed from the cell plate using the Bluewasher plate washer (gentle spin; BlueCatBio); 3) 14 μl of compound/stimulation buffer mixture was added to the cell plate using a Bravo liquid handler (Agilent) prior to incubating cell plates at 37° C. with 5% CO2 and 85% humidity for 1 or 2 hours (OX1R and OX2R, respectively). During this incubation, IP-one detection reagents were prepared (38:1:1 lysis buffer:D2:AB-cryptate reagents). Six μL of mixed detection reagents were added to the cell plate using a Multidrop Combi (small cassette, Thermo Fisher Scientific cat #24073290) and incubated 60 minutes at room temperature in the dark. Fluorescence signal was detected using an Envision plate reader (Perkin Elmer) [LANCE/DELFIA Dual Enh (Em: APC 665; Ex: Cy5 620)].
For each compound, data were fit to a four parameter logistic fit (ActivityBase software) and the EC50 was reported as the inflection point of the resulting curve. Percent effect for each test compound was determined as the percentage of sample raw value/mean max effect, where the mean max effect was derived from the mean raw value of 32 control wells per assay plate (using Orexin A (cat #003-30) at 1 μM for human OX1R and a reference compound at 1 uM with 100% activity previously established by comparison to Orexin A for human OX2R). The intrinsic orexin receptor agonist activity of a compound which may be used in the present invention may be determined by these assays.

SMILES	pEC50	% of reference agonist maximal effect [%]
CCNC(=O)N1CCCC(c2[nH]ncc2C)C1COC1CCC(C(C)C)CC1 (single isomer, unassigned) [Example 60, N-ethyl-2-(((4-isopropylcyclohexyl)oxy)methyl)-3-(4-methyl-1H-pyrazol-5-yl)piperidine-1-carboxamide]	7.25	100
CC1(C(=O)N2CCC[C@H](c3cc[nH]n3)[C@@H]2CO[C@H]2CC[C@@H](c3ccccc3)CC2)CC1 (relative stereo) [Example 80, (1-methylcyclopropyl)((CIS)-2-((((CIS)-4-phenylcyclohexyl)oxy)methyl)-3-(1H-pyrazol-3-yl)piperidin-1-yl)methanone]	5.26	87.5
COC(=O)N1CCC[C@H](c2n[nH]cc2C)[C@@H]1COC1CCN(c2ncc(F)cn2)CC1 (relative stereo) [Example 7, methyl (CIS)-2-(((1-(5-fluoropyrimidin-2-yl)piperidin-4-yl)oxy)methyl)-3-(4-methyl-1H-pyrazol-3-yl)piperidine-1-carboxylate]	5.82	95.7
CCNC(=O)N1CCCC(c2nc[nH]n2)C1CO[C@H]1CC[C@@H](C(C)C)CC1 (single isomer, unassigned) [Example 62, N-ethyl-2-((((CIS)-4-isopropylcyclohexyl)oxy)methyl)-3-(1H-1,2,4-triazol-3-yl)piperidine-1-carboxamide]	< 5.00	11.9
O=C(CC1COC1)N1CCC[C@H](c2cc[nH]n2)[C@@H]1CO[C@H]1CC[C@@H](c2ccccc2)CC1 (relative stereo) [Example 74, 2-(oxetan-3-yl)-1-((CIS)-2-((((CIS)-4-phenylcyclohexyl)oxy)methyl)-3-(1H-pyrazol-3-yl)piperidin-1-yl)ethan-1-one]	5.48	94.3
C=CCNC(=O)N1CCC[C@H](c2cc[nH]n2)[C@@H]1CO[C@H]1CC[C@@H](C(C)C)CC1 (relative stereo) [Example 120, (CIS)-N-allyl-2-((((CIS)-4-isopropylcyclohexyl)oxy)methyl)-3-(1H-pyrazol-3-yl)piperidine-1-carboxamide]	5.94	97.8
COC(=O)N1CCC[C@H](c2n[nH]cc2Cl)[C@@H]1CO[C@H]1CC[C@@H](c2ccc(Cl)cc2)CC1 (racemic) [Example 48, Methyl cis-3-(4-chloro-1H-pyrazol-3-yl)-2-((((CIS)-4-(4-chlorophenyl)cyclohexyl)-oxy)methyl)piperidine-1-carboxylate]	6.04	97.6
CC(C)C(=O)N1CCC[C@H](c2cc[nH]n2)[C@@H]1CO[C@H]1CC[C@@H](C(C)C)CC1 (relative stereo) [Example 73, 1-((CIS)-2-((((CIS)-4-isopropylcyclohexyl)oxy)methyl)-3-(1H-pyrazol-3-yl)piperidin-1-yl)-2-methylpropan-1-one]	5.49	79.3
COC(=O)CCOC(=O)N1CCC[C@H](c2cc[nH]n2)[C@@H]1CO[C@H]1CC[C@@H](c2ccccc2)CC1 (relative stereo) [Example 114, 3-methoxy-3-oxopropyl (CIS)-2-((((CIS)-4-phenylcyclohexyl)oxy)methyl)-3-(1H-pyrazol-3-yl)piperidine-1-carboxylate]	5.17	80.5
O=C(NCC(F)(F)F)N1CCCC(c2ccn[nH]2)C1CO[C@H]1CC[C@@H](c2c(F)ccc(F)c2F)CC1 (some centres unmarked) [Example 34]	7.75	99.9
CCNC(=O)N1CCC[C@H](c2cc[nH]n2)[C@@H]1CO[C@H]1CC[C@@H](c2ccccc2)CC1 [Example 17, (2R,3S)-N-ethyl-2-((((CIS)-4-phenylcyclohexyl)oxy)methyl)-3-(1H-pyrazol-3-yl)piperidine-1-carboxamide]	7.56	100.1
CC#CCCOC(=O)N1CCC[C@H](c2cc[nH]n2)[C@@H]1CO[C@H]1CC[C@@H](c2ccccc2)CC1 (relative stereo) [Example 106, pent-3-yn-1-yl (CIS)-2-((((CIS)-4-phenylcyclohexyl)oxy)methyl)-3-(1H-pyrazol-3-yl)piperidine-1-carboxylate]	5.29	71.4
CC(F)(F)COC(=O)N1CCC[C@H](c2cc[nH]n2)[C@@H]1CO[C@H]1CC[C@@H](c2ccccc2)CC1 (relative stereo) [Example 110, 2,2-difluoropropyl (CIS)-2-((((CIS)-4-phenylcyclohexyl)oxy)methyl)-3-(1H-pyrazol-3-yl)piperidine-1-carboxylate]	5.21	58.5
CC(=O)COC(=O)N1CCC[C@H](c2cc[nH]n2)[C@@H]1CO[C@H]1CC[C@@H](c2ccccc2)CC1 (relative stereo) [Example 97, 2-oxopropyl (CIS)-2-((((CIS)-4-phenylcyclohexyl)oxy)methyl)-3-(1H-pyrazol-3-yl)piperidine-1-carboxylate]	6.05	99.1
COC(=O)N1CCC[C@H](c2cccc(O)n2)[C@@H]1CO[C@H]1CC[C@@H](c2ccccc2)CC1 (relative stereo) [Example 64, Methyl (CIS)-3-(6-hydroxypyridin-2-yl)-2-((((CIS)-4-phenylcyclohexyl)oxy)methyl)piperidine-1-carboxylate]	5.51	68.1
CC(C)[C@H]1CC[C@@H](OC[C@H]2[C@@H](c3cc[nH]n3)CCCN2C(=O)NCC2CCCCC2)CC1 (relative stereo) [Example 123, (CIS)-N-(cyclohexylmethyl)-2-((((CIS)-4-isopropylcyclohexyl)oxy)methyl)-3-(1H-pyrazol-3-yl)piperidine-1-carboxamide]	5.17	87.9
O=C(OC1CCC1)N1CCC[C@H](c2cc[nH]n2)[C@@H]1CO[C@H]1CC[C@@H](c2ccccc2)CC1 (relative stereo) [Example 112, cyclobutyl (CIS)-2-((((CIS)-4-phenylcyclohexyl)oxy)methyl)-3-(1H-pyrazol-3-yl)piperidine-1-carboxylate]	5.20	61.6
O=C(C1CC1(F)F)N1CCC[C@H](c2cc[nH]n2)[C@@H]1CO[C@H]1CC[C@@H](c2ccccc2)CC1 (relative stereo) [Example 92, (2,2-difluorocyclopropyl)((CIS)-2-((((CIS)-4-phenylcyclohexyl)oxy)methyl)-3-(1H-pyrazol-3-yl)piperidin-1-yl)methanone]	5.16	88.6
O=C(OCC(F)(F)F)N1CCC[C@H](c2cc[nH]n2)[C@@H]1CO[C@H]1CC[C@@H](c2ccccc2)CC1 (relative stereo) [Example 102, 2,2,2-trifluoroethyl (CIS)-2-((((CIS)-4-phenylcyclohexyl)oxy)methyl)-3-(1H-pyrazol-3-yl)piperidine-1-carboxylate]	5.53	40.7
